Source: the supplement of paper PMC10331698
± gives the standard deviation of the averaged measurements.

Assays:
Assay in all cases: level (log10 ratio to DMSO vehicle control); higher = higher biomarker level / cell amount than vehicle control
Conditions in all cases: in DMSO
[1] = compound: NCC(F)(F)C(F)(F)C(F)(F)C(F)(F)C(F)(F)C(F)(F)C(F)(F)F [1H,1H-Perfluorooctylamine]
Description: (§1)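 BioMAP Diversity Plus panel of 12 human primary cell co-culture systems (3C, 4H, LPS, SAg, BT, BF4T, BE3C, CASM3C, HDF3CGF, KF3CT, MyoF, Mphg). Compounds were added 1 h before stimulation and left for 24 h (MyoF 48 h; BT 72 h for soluble read-outs or 6 d for IgG). Biomarkers were read by ELISA, cytotoxicity by SRB, PBMC viability and proliferation by Alamar Blue. Each well value was divided by the mean of 8 DMSO control wells on the same plate and log10 transformed; duplicate blinded samples were tested at 4 concentrations.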

[2] = compound: O=C(O)C(F)(F)OC(F)(F)C(F)(F)OC(F)(F)F [Perfluoro-3,6-dioxaheptanoic acid]
Description: as §1

[3] = compound: FC(F)C(F)(F)COCC1CO1 [((2,2,3,3-Tetrafluoropropoxy)methyl)oxirane]
Description: as §1

Perfluorodecanoic acid = compound: O=C(O)C(F)(F)C(F)(F)C(F)(F)C(F)(F)C(F)(F)C(F)(F)C(F)(F)C(F)(F)C(F)(F)F [Perfluorodecanoic acid]
Description: as §1

Heptafluorobutyramide = compound: NC(=O)C(F)(F)C(F)(F)C(F)(F)F [Heptafluorobutyramide]
Description: as §1

[4] = compound: OCCC(F)(F)C(F)(F)C(F)(F)C(F)(F)C(F)(F)C(F)(F)F [6:2 Fluorotelomer alcohol]
Description: as §1

[5] = compound: O=C(O)C(F)(F)C(F)(F)C(F)(F)C(F)(F)C(F)(F)C(F)(F)C(F)(F)C(F)F [9-H-Perfluorononanoic acid]
Description: as §1

Test System	level (log10) ([1]; 6700 nM)	level (log10) ([1]; 20000 nM)	level (log10) ([1]; 60000 nM)	level (log10) ([2]; 6700 nM)	level (log10) ([2]; 20000 nM)	level (log10) ([2]; 60000 nM)	level (log10) ([3]; 6700 nM)	level (log10) ([3]; 20000 nM)	level (log10) ([3]; 60000 nM)	level (log10) (Perfluorodecanoic acid; 6700 nM)	level (log10) (Perfluorodecanoic acid; 20000 nM)	level (log10) (Heptafluorobutyramide; 6700 nM)	level (log10) (Heptafluorobutyramide; 20000 nM)	level (log10) (Heptafluorobutyramide; 60000 nM)	level (log10) ([4]; 6700 nM)	level (log10) ([4]; 20000 nM)	level (log10) ([5]; 6700 nM)	level (log10) ([5]; 20000 nM)	level (log10) ([5]; 60000 nM)
BE3C:IL-1alpha	-0.002 ± 0.0028	-0.0285 ± 0.016	-0.01 ± 0.0014	-0.035 ± 0.04	-0.0345 ± 0.032	-0.0385 ± 0.046	0.0015 ± 0.029	-0.0015 ± 0.0078	-0.008 ± 0.014	-0.0245 ± 0.00071	-0.811 ± 0.055	-0.0085 ± 0.052	0.027 ± 0.037	-0.004 ± 0.076	0.019 ± 0.016	0.008 ± 0.0057	0.032 ± 0.0028	0.014 ± 0.028	0.026 ± 0.0028
BF4T:MMP-3	-0.0075 ± 0.042	-0.0185 ± 0.044	0.0095 ± 0.0078	-0.0065 ± 0.029	-0.0075 ± 0.025	0.0065 ± 0.0078	0.0015 ± 0.00071	-0.0115 ± 0.026	0.0205 ± 0.059	0.0215 ± 0.023	-0.14 ± 0.075	0.0075 ± 0.0021	-0.005 ± 0.02	0.0065 ± 0.012	-0.004 ± 0.0042	-0.0055 ± 0.0035	-0.0115 ± 0.03	-0.0025 ± 0.00071	0.075 ± 0.0071
LPS:M-CSF	0.008 ± 0.024	-0.015 ± 0.03	-0.0235 ± 0.025	-0.0505 ± 0.056	-0.014 ± 0.055	-0.0185 ± 0.057	0.0075 ± 0.011	0.009 ± 0.017	-0.0155 ± 0.036	-0.0015 ± 0.015	-0.0045 ± 0.018	-0.003 ± 0.016	-0.006 ± 0.0014	-0.006 ± 0.0057	0.0085 ± 0.0035	-0.005 ± 0.021	-0.025 ± 0.04	-0.0085 ± 0.016	0.0525 ± 0.044
4H:SRB	-0.003 ± 0.0042	0.0005 ± 0.011	0.003 ± 0.042	0.009 ± 0.0042	0.0085 ± 0.0035	0 ± 0.0042	-0.015 ± 0.0085	-0.003 ± 0.0042	-0.012 ± 0.027	0.003 ± 0.0099	-0.0055 ± 0.00071	-0.0275 ± 0.026	-0.0165 ± 0.0035	-0.006 ± 0.018	-0.011 ± 0.024	-0.006 ± 0.024	0.008 ± 0.033	-0.0115 ± 0.025	-0.039 ± 0.0099
BF4T:CD54/ICAM-1	0.0025 ± 0.0021	-0.0045 ± 0.00071	0.0075 ± 0.0021	0.0115 ± 0.005	-0.009 ± 0.0028	-0.012 ± 0.0071	-0.005 ± 0.0099	-0.0065 ± 0.0064	-0.002 ± 0.0057	-0.0305 ± 0.0064	-0.181 ± 0.011	-0.0065 ± 0.011	-0.013 ± 0.0042	0.0015 ± 0.015	-0.004 ± 0.0014	-0.0025 ± 0.011	-0.0775 ± 0.0092	-0.088 ± 0.0028	-0.0795 ± 0.00071
BF4T:SRB	-0.002 ± 0.0042	-0.005 ± 0.013	-0.0005 ± 0.016	-0.007 ± 0.0057	-0.0035 ± 0.0021	-0.003 ± 0.0028	-0.0075 ± 0.0035	-0.006 ± 0.0057	0.002 ± 0.017	-0.001 ± 0.0071	-0.256 ± 0.0014	-0.01 ± 0.0085	-0.0075 ± 0.00071	-0.005 ± 0.0099	-0.0065 ± 0.005	-0.0055 ± 0.0078	-0.018 ± 0.0085	-0.018 ± 0.0071	-0.016 ± 0.0014
LPS:CD40	-0.0195 ± 0.019	-0.0095 ± 0.023	-0.022 ± 0.04	-0.0055 ± 0.012	-0.0295 ± 0.039	-0.024 ± 0.038	0.009	-0.006 ± 0.0057	-0.012 ± 0.017	-0.015 ± 0.16	-0.0235 ± 0.12	0.0065 ± 0.022	-0.004 ± 0.071	0.001 ± 0.059	-0.0015 ± 0.03	-0.0315 ± 0.015	-0.027 ± 0.023	-0.033 ± 0.016	-0.0655 ± 0.021
